Patent US20070179161A1, “Pyrazolopyrimidine compounds and their use in medicine” (VERNALIS (CAMBRIDGE) LIMITED., priority 2003, published 2007)
Read-outs that look alike come from different tables or passages of the source.

Assays:
[1] = target: CDK-2 enzyme, complexed with cyclin A (Homo sapiens, UniProt P24941); test: CDK2 enzyme inhibition assay (33P phosphorylation of peptide […], filter plate); format: biochemical; settings: CDK-2/cyclin A, 0.1 mM ATP, 40 min at 30° C.
Method in brief: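 Cyclin A–complexed CDK2 (0.4 U/ml) incubated with inhibitor, 0.03 mM peptide, 0.1 mM ATP plus 33P-γ-ATP in HEPES pH 7.5, 7.5 mM Mg acetate, 0.1 mg/ml BSA, 40 min at 30 °C. Stopped with phosphoric acid; phosphorylated peptide captured on filter plates and counted by scintillation.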

GST-Chk1 enzyme = target: T1, GST-Chk1 enzyme (Homo sapiens, UniProt O14757); test: Chk1 kinase inhibition assay (33P phosphorylation of Chktide, filter plate); format: biochemical; settings: 0.01 mM ATP, 11 nM GST-Chk1, 40 minutes at 30° C.; read-out: Chk1 IC50
T1 sequence (O14757 1-476): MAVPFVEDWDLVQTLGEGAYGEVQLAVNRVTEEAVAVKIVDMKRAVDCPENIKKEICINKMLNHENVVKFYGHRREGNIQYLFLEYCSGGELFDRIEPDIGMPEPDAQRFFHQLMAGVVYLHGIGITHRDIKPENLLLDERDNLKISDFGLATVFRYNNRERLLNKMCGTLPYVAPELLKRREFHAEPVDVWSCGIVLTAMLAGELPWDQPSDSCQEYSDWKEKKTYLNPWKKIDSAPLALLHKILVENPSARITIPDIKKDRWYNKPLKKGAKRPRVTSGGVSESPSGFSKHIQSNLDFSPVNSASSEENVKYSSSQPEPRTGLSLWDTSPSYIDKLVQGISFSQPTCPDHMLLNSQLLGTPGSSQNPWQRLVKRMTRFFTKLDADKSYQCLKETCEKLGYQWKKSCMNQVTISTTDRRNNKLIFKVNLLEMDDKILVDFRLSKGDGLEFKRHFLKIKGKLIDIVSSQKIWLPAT
Method in brief: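 Inhibitor and enzyme reacted 40 min at 30 °C, then stopped with 50 mM phosphoric acid. Phosphorylated peptide captured on filter plates and quantified by scintillation counting.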

PDK1 enzyme = target: T2, PDK1 enzyme (Homo sapiens, UniProt O15530); test: PDK1 kinase inhibition assay (33P phosphorylation of synthetic peptide, filter plate); format: biochemical; settings: 0.01 mM ATP, 60 min at 30° C.; read-out: PDK1 IC50
T2 sequence (O15530 1-556): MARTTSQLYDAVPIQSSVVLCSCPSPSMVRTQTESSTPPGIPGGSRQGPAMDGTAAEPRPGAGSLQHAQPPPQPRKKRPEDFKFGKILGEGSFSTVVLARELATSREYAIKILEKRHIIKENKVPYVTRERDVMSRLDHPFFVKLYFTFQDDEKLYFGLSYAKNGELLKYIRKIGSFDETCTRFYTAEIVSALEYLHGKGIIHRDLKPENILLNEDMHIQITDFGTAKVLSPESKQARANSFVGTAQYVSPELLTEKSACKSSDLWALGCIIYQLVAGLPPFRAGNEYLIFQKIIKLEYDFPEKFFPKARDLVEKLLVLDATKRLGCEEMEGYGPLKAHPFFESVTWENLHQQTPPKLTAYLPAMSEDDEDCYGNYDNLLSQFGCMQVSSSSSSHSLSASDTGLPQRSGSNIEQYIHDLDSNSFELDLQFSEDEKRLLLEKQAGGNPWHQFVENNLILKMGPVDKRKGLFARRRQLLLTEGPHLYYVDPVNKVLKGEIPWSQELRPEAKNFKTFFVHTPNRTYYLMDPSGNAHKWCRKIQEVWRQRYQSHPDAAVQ
Method in brief: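 PDK1 and inhibitor incubated 60 min at 30° C with 0.01 mM ATP plus 33P-γ-ATP, 0.075 mM peptide, 7.5 mM Mg acetate, 0.1 mg/ml BSA in 0.05 M Tris.HCl pH 7.5. Stopped with phosphoric acid; phosphorylated peptide captured on filter plate and counted by scintillation.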

[2] = Cell growth inhibition assay: cytotoxicity by sulforhodamine B (SRB) assay; format: cell-based; settings: 96 h
Procedure: B. Cell Growth Inhibition Assay:
• 1) Determine cell number by haemocytometer. • 2) Using an 8 channel multipipettor, add 160 μl of the cell suspension ([…] or 2×10^4 cells/ml) to each well of a 96-well microtitre plate. • 3) Incubate overnight at 37° C. in a CO2 incubator. Day 2 • 4) Stock solutions of drugs are prepared, and serial dilutions of each drug are performed in medium to give final concentrations in wells. • 5) Using a multipipettor, 40 μl of drug (at 5× final concentration) is added to quadruplicate wells. • 6) Control wells are at either side of the 96 well plates, where 40 μl of medium is added. • 7) Incubate plates in CO2 incubator for 4 days Day 6 • 8) Tip off medium into sink and immerse plate slowly into 10% ice cold trichloroacetic acid (TCA). Leave for about 30 mins on ice. • 9) Wash plates three times in tap water by immersing the plates into baths of tap water and tipping it off. • 10) Dry in incubator. • 11) Add 100 μl of 0.4% SRB in 1% acetic acid to each well (except the last row right hand)of the 96 well plate, this is the 0% control, ie no drug, no stain. The first row will be the 100% control with no drug, but with stain). Leave for 5 mins. • 12) Wash off unbound SRB stain with four washes of 1% acetic acid. • 13) Dry plates in incubator. • 14) Solubilise SRB using 100 μl of 10 mM Tris base and put plates on plate shaker for 5 mins. • 15) Determine absorbance at 540 nm using a plate reader. Calculate mean absorbance for quadruplicate wells and express as a percentage of value for control, untreated wells.
Plot % absorbance values versus log drug concentration and determine the IC50.

[3] = SRB assay, 4 days with drug, cell line not named, read-out: GI50

IC50 [1] [nM] | IC50 (GST-Chk1 enzyme) [nM] | IC50 (PDK1 enzyme) [nM] | Compound | GI50 [2] [nM] | GI50 [2, 3] [nM]
815 | 12000 | 5000 | CC(C)c1cnn2c(Nc3ccc(S(=O)(=O)N(C)C)cc3)cc(N[C@H]3CC[C@H](N(C)C)CC3)nc12 [Example 162] | – | –
10000 | 1530 | 6000 | CN(C)S(=O)(=O)c1ccc(Nc2cc(N[C@H]3CC[C@H](N)CC3)nc3c(-c4ccccc4)cnn23)cc1 [Example 163] | – | –
222 | 250 | 4700 | CS(=O)(=O)c1ccc(Nc2cc(N[C@H]3CC[C@@H](N)CC3)nc3c(Br)cnn23)cc1 [Example 164] | – | –
4 | 720 | 168000 | CN(C)S(=O)(=O)c1ccc(Nc2cc(N[C@H]3CC[C@H](N)CC3)nc3c(C4CCCC4)cnn23)cc1 [Example 167] | – | –
14 | 5000 | 15200 | CN(C)S(=O)(=O)c1ccc(Nc2cc(O[C@H]3CC[C@H](N)CC3)nc3c(Cl)cnn23)cc1 [Example 168] | – | 210
2170 | 4000 | 15200 | CCc1cnn2c(Nc3ccc(S(C)(=O)=O)cc3)cc(N[C@H]3CC[C@@H](N)CC3)nc12 [Example 173] | – | –
150 | 70 | 2580 | N[C@H]1CC[C@@H](Nc2cc(Nc3ccc(S(=O)(=O)N4CCCC4)cc3)n3ncc(Br)c3n2)CC1 [Example 178] | – | –
73 | 210 | 4420 | CC(C)c1cnn2c(Nc3ccc(S(=O)(=O)N(C)C)cc3)cc(N[C@H]3CCNC3)nc12 [Example 194] | – | 590
55 | – | – | CSc1cnn2c(Nc3ccc(S(=O)(=O)N(C)C)cc3)cc(N[C@H]3CC[C@H](N)CC3)nc12 [Example 197] | – | 580
7 | 330 | 1350 | CN(C)S(=O)(=O)c1ccc(Nc2cc(N[C@H]3CC[C@H](N)CC3)nc3c(C#N)cnn23)cc1 [Example 199] | – | –

More lines, now with the values behind:

Compound | IC50 [1] [nM] | IC50 (GST-Chk1 enzyme) [nM] | IC50 (PDK1 enzyme) [nM] | GI50 [2] [nM] | GI50 [2, 3] [nM]
CCN[C@H]1CC[C@H](Nc2cc(Nc3ccc(S(=O)(=O)N(C)C)cc3)n3ncc(C(C)C)c3n2)CC1 [Example 147] | 98 | 4000 | 10000 | 1000 | –
NC(=O)c1ccc(Nc2cc(N[C@H]3CC[C@@H](N)CC3)nc3c(Br)cnn23)cc1 [Example 165] | 26 | 620 | 1200 | – | –
CC1(C)CC(Nc2cc(Nc3ccc(S(=O)(=O)Nc4nccs4)cc3)n3ncc(Br)c3n2)CC(C)(C)N1 [Example 166] | 16900 | 17000 | 2150 | – | –
CN(C)S(=O)(=O)c1ccc(Nc2cc(N[C@H]3CC[C@H](N)CC3)nc3c(Br)cnn23)cc1Cl [Example 180] | 2 | 830 | 2000 | 330 | –
N[C@H]1CC[C@H](Nc2cc(Nc3ccc(Oc4ccccc4)cc3)n3ncc(Br)c3n2)CC1 [Example 181] | 101 | 1000 | 109000 | – | 90
N[C@H]1CC[C@H](Nc2cc(Nc3ccc(Oc4ccccc4)cc3)n3ncc(Cl)c3n2)CC1 [Example 187] | 54 | 2000 | 2000 | – | –
N[C@H]1CC[C@H](Nc2cc(Nc3ccc(Oc4cncc(Cl)c4)cc3)n3ncc(Cl)c3n2)CC1 [Example 191] | 18 | – | – | – | 40
N[C@H]1CC[C@H](Nc2cc(Nc3cccc(Cl)c3)n3ncc(Cl)c3n2)CC1 [Example 192] | 9 | 2140 | 3240 | – | 200
N[C@H]1CC[C@H](Nc2cc(Nc3ccc(Sc4cccs4)cc3)n3ncc(Cl)c3n2)CC1 [Example 193] | 47 | 1470 | 2880 | – | –
CN(C)S(=O)(=O)c1ccc(Nc2cc(O[C@H]3CCNC3)nc3c(Cl)cnn23)cc1 [Example 196] | 360 | 4190 | – | – | 1000
CSc1cnn2c(Nc3ccc(Oc4cncc(Cl)c4)cc3)cc(N[C@H]3CC[C@H](N)CC3)nc12 [Example 198] | 18 | 2080 | 4480 | – | 310
